Non-standard residues stand in square brackets, D forms with d. No end group written: not given here. *: point of attachment. Acetyl(2-(piperazin-1-yl)) = O=C(CN1CCNCC1)*; PEG20k = methoxypolyethylene glycol 20k; NMeA = CN[C@@H](C)C(=O)O; βAla = NCCC(=O)O
Assays:
Human FM3 = target: T1, Human FM3 (Homo sapiens, UniProt Q9HB89); assay: Receptor binding test: inhibition of 125I-NMU8 binding to FM3 membrane fraction; conditions: ratio of IC50 values when the affinity of NMU-8 was 1; 125I-NMU8 135 pM, CHO cell membrane fraction
T1 construct: expressed in transfected cells; host or cells: CHO (dhfr-) cells; membrane fraction
T1 sequence (Q9HB89 1-426): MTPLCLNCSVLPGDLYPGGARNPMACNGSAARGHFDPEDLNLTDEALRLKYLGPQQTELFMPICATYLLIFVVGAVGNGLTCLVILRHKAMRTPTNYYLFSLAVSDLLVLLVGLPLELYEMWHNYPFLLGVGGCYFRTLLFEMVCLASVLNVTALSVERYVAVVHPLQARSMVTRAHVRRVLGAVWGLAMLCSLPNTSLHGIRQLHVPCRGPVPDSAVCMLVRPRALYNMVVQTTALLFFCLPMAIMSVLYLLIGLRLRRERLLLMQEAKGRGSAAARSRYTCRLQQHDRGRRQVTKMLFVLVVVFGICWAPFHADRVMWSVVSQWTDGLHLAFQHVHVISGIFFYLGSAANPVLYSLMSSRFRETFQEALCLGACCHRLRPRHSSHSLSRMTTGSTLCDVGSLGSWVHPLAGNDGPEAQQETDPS

human TGR1 = target: T2, human TGR1 (Homo sapiens, UniProt Q9GZQ4); assay: Receptor binding test: inhibition of 125I-NMU8 binding to TGR1 membrane fraction; conditions: ratio of IC50 values when the affinity of NMU-8 was 1; 125I-NMU8 135 pM, CHO cell membrane fraction
T2 construct: expressed in transfected cells; host or cells: CHO (dhfr-) cells; membrane fraction
Procedure: CHO cells expressing Human FM3 (dhfr-) and CHO cells expressing human TGR1 (dhfr-) were cultured in 10% dialyzed FBS-containing MEMα (Invitrogen) medium under conditions of 5% carbon dioxide at 37° C. The adherent cells were detached with 10 mL of 0.1 mM EDTA-containing D-PBS (Invitrogen) and centrifuged for 10 minutes at 1,000 rpm at 4° C., thereby collecting the cells. 15 mL of homogenized buffer (10 mM NaHCO3 (pH 7.4), 5 mM EDTA, protease inhibitor=0.5 mM PMSF, 10 μg/mL Pepstatin A, 20 μg/mL Leupeptin, and 4 μg/mL E-64) was added to the obtained cell pellets, the cellular membrane was disrupted using a polytron homogenizer (Kinematica GmbH), centrifugation was conducted for 10 minutes at 1,000 g at 4° C., and the supernatant was collected. This process was further repeated twice, and ultracentrifugation was conducted for 60 minutes at 30,000 rpm at 4° C. Thereafter, 8 mL of homogenized buffer was added to the pellets and suspended homogeneously to prepare a membrane fraction. The protein concentration of the FM3-expressing CHO cellular membrane fraction was 1.2 mg/mL, and the protein concentration of the TGR1-expressing CHO cellular membrane fraction was 1.1 mg/mL.
The affinity of the NMU-8 derivatives and PEG conjugates shown in Table 2 (Table 2-1 and Table 2-2) with respect to each receptor was evaluated based on the inhibition of ^125I-NMU8 labeled ligand binding to the FM3 membrane fraction or to the TGR1 membrane fraction. Specifically, each of the NMU derivatives and PEG conjugates was dissolved in DMSO so as to prepare 2 μL of each dilution series of the NMU derivatives and PEG conjugates. Then, 100 μL of membrane fraction solutions diluted with a reaction buffer (50 mM HEPES, 1 mM EDTA protease inhibitor (0.5 mM PMSF), 10 μg/mL Pepstatin A, 20 μg/mL Leupeptin, and 4 μg/mL E-64, pH 6.8, 0.1% BSA) was added thereto, followed by further addition of 100 μL of the labeled ligand (final concentration: 135 pM) similarly diluted with the reaction buffer. The resulting product was thoroughly mixed, and then a reaction was carried out at 25° C. for 70 minutes. In accordance with the above-described procedure, the binding amount of the labeled ligand remaining in the filter was measured using a top count (PerkinElmer) by a liquid scintillation method, and the IC50 values were calculated using a Graph Pad Prism (FIG. 1 (FM3 receptor binding), FIG. 2 (TGR1 receptor binding), and Table 2).

[1] = Anorectic activity via peripheral administration; type: in vivo

T2 sequence (Q9GZQ4 whole entry): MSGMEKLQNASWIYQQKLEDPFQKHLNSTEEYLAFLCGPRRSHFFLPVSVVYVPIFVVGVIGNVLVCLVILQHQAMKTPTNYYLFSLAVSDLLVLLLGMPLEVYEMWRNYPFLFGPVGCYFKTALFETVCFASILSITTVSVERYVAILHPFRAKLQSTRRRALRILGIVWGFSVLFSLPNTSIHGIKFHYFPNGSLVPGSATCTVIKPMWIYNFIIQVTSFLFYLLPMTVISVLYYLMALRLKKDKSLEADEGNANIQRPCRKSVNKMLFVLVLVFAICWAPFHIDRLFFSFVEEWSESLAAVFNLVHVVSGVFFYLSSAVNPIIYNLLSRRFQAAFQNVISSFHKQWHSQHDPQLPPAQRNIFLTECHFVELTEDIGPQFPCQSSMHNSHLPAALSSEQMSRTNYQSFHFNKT

Substance	FM3 Receptor Binding IC50 ratio (Human FM3)	TGR1 Receptor Binding IC50 ratio (human TGR1)	anorectic activity [1]
2-(piperazin-1-yl)acetyl-Arg3-NMU8 [Compound 10]	0.27	0.66	–
PEG30k-NH-β-Ala0,Pro1-NMU-8 [Compound H]	9.4	21	–
PEG20k-NH-β-Ala0,Glu2,NMeAla6-NMU-8 ({PEG20k-βAla}-YELFR[NMeA]RN-NH2) [Compound R]	>7300	–	–
PEG20k-NpipAc-Glu2,NMeAla6-NMU8 ({PEG20k-Acetyl(2-(piperazin-1-yl))}-YELFR[NMeA]RN-NH2) [Compound U]	>10000	–	–
β-Ala0,Gln3-NMU-8 [Compound 2]	0.31	3.9	–
β-Ala0,Arg3-NMU-8 [Compound 3]	0.07	0.38	–
PEG20k-NPipAc-Phe1, Trp2,Ala6-NMU-8 ({PEG20k-Acetyl(2-(piperazin-1-yl))}-FWLFRARN-NH2) [Compound K]	11000	–	–
PEG20k-NH-β-Ala0,NMeTyr1,NMeLeu3,NMeArg5-NMU-8 [Compound P]	83	240	–
PEG30k-NH-β-Ala0,NMeArg5-NMU-8 [Compound M]	9.0	29	–
PEG30k-NH-β-Ala0,Gln5-NMU-8 [Compound A]	160	9.6	–
NpipAc0,Trp2,Ala6-NMU-8 [Compound 20]	900	1.9	–
NMU-23: Rat NMU consists of 23 amino acid residues, and is named NMU-23 (YKVNEYQGPVAPSGGFFLFRPRN; ends and bridges not checked; UniProt P12760 144-166, looked up)	–	–	induces an anorectic activity
Tyr-Phe-Leu-Phe-Arg-Pro-Arg-Asn-NH2 [NMU-8]	–	–	does not induce an anorectic activity
NpipAc0,Glu2,Ala6-NMU-8 [Compound 19]	24000	25	–
β-Ala0,Gln5-NMU-8 [Compound 1]	15	3.4	–
PEG30k-NH-β-Ala0,Arg(Me) 7-NMU-8 [Compound N]	290	63	–
PEG20k-NpipAc-Glu2,Ala6-NMU8 ({PEG20k-Acetyl(2-(piperazin-1-yl))}-YELFRARN-NH2) [Compound S]	>10000	–	–
β-Ala0,Trp2,NMeAla6-NMU-8 [Compound 17]	92	1.9	–
NpipAc0,Glu2,NMeAla6-NMU-8 [Compound 21]	6500	5.5	–

More lines, main results first:

FM3 Receptor Binding IC50 ratio (Human FM3)	TGR1 Receptor Binding IC50 ratio (human TGR1)	Substance	anorectic activity [1]
2.4	2.0	β-Ala0,Asp8-NMU-8 [Compound 12]	–
150	34	PEG30k-NH-β-Ala0,Asp8-NMU-8 [Compound L]	–
0.42	3.7	β-Ala0,Arg1-NMU-8 [Compound 7]	–
26000	31	β-Ala0,Glu2,NMeAla6-NMU-8 [Compound 18]	–
5.3	2.2	PEG30k-NH-β-Ala0,Val3-NMU-8 [Compound D]	–
8.6	19	β-Ala0,NMeLeu3,NMeArg7-NMU-8 [Compound 15]	–
>10000	–	PEG20k-NpipAc-Trp2,Ala6-NMU8 ({PEG20k-Acetyl(2-(piperazin-1-yl))}-YWLFRARN-NH2) [Compound T]	–
0.59	3.8	β-Ala0,Pro1-NMU-8 [Compound 8]	–
1.3	11	PEG30k-NH-β-Ala0,Cha3-NMU-8 [Compound F]	–
8.1	1.7	PEG30k-NH-β-Ala0,Tyr2-NMU-8 [Compound E]	–
75	170	PEG20k-NH-β-Ala0,NMeLeu3,NMeArg7-NMU-8 [Compound O]	–
1.8	7.3	PEG30k-NH-β-Ala0,Gln3-NMU-8 [Compound B]	–
1600	47	PEG20k-NH-β-Ala0,Trp2,NMeAla6-NMU-8 [Compound Q]	–
99	1.7	NpipAc0,Nal(2)2,NMeAla6-NMU-8 [Compound 22]	–
280	0.19	NpipAc0,Phe1,Trp2,Ala6-NMU-8 [Compound 11]	–
0.46	1.1	β-Ala0,NMeArg5-NMU-8 [Compound 13]	–
0.43	0.37	β-Ala0,Val3-NMU-8 [Compound 4]	–
1.5	8.5	PEG30k-NH-β-Ala0,Arg1-NMU-8 [Compound G]	–
0.55	9.9	β-Ala0,Cha3-NMU-8 [Compound 6]	–
6.3	3.6	β-Ala0,Arg(Me)7-NMU-8 [Compound 14]	–
1.7	2.6	PEG30k-NH-β-Ala0,Arg3-NMU-8 [Compound C]	–
